# Several values for one entry are separate records, joined by “and”; a condition that tells them apart may be missing. Equal entries are not always repeated.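 Cultured in 96-well plates, cells were exposed to test compound for 48 hours across five concentrations. The concentration for 50% growth inhibition is given as GI50. Definition used: TGI = concentration required for complete inhibition of growth.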
# Tests used:
# Test in all cases: DTP human tumour cell line panel, 48 h
# OVCAR-8 ovarian = tested on: OVCAR-8 ovarian
# OVCAR-5 ovarian = tested on: OVCAR-5 ovarian
# SK-MEL-2 melanoma = tested on: SK-MEL-2 melanoma
# OVCAR-4 ovarian = tested on: OVCAR-4 ovarian
# SR leukemia = tested on: SR leukemia
# SK-MEL-5 melanoma = tested on: SK-MEL-5 melanoma
# HCT-116 colon = tested on: HCT-116 colon
# MCF7 breast = tested on: MCF7 breast
# HCT-15 colon = tested on: HCT-15 colon
# DU-145 prostate = tested on: DU-145 prostate
# NCI-H226 lung = tested on: NCI-H226 lung
Structure (SMILES),TGI (OVCAR-8 ovarian),TGI (OVCAR-5 ovarian),TGI (SK-MEL-2 melanoma),TGI (OVCAR-4 ovarian),TGI (SR leukemia),TGI (SK-MEL-5 melanoma),TGI (HCT-116 colon),TGI (MCF7 breast),TGI (HCT-15 colon),TGI (DU-145 prostate),TGI (NCI-H226 lung),GI50 (OVCAR-8 ovarian),GI50 (OVCAR-4 ovarian),GI50 (SR leukemia),GI50 (HCT-15 colon),GI50 (NCI-H226 lung),GI50 (OVCAR-5 ovarian),GI50 (SK-MEL-2 melanoma)
CCOC(=O)c1c(NC(=S)Nc2ccccc2)sc2c1CCOC2,> 100 µM,> 100 µM,> 100 µM,> 100 µM,> 100 µM,> 100 µM,> 100 µM,> 100 µM,> 100 µM,> 100 µM,> 100 µM,–,–,–,–,–,–,–
NS(=O)(=O)c1ccc(/C=C/c2ccc(O)cc2)cc1,31.9 µM,> 100 µM,60.3 µM,> 100 µM,55.5 µM,29 µM,85.6 µM,> 100 µM,> 100 µM,> 100 µM,33.1 µM,4.81 µM,36.9 µM,4.68 µM,24.6 µM,11.1 µM,–,–
COC(=O)CC1c2ccccc2N2C(=O)Cc3c([nH]c4ccccc34)C12 (stereo not given),> 100 µM,> 100 µM,> 100 µM,> 100 µM,> 100 µM,> 100 µM,> 100 µM,> 100 µM,> 100 µM,> 100 µM,> 100 µM,–,–,–,–,–,–,–
O=C(CC(Cl)=C(Cl)Cl)c1ccccc1,> 100 µM,> 100 µM,> 100 µM,> 100 µM,43.7 µM,> 100 µM,45.2 µM,> 100 µM,70.6 µM,> 100 µM,72.5 µM,–,–,–,–,–,–,–
COC(=O)CCC(NC(=O)OC(C)(C)C)C(=O)NC(Cc1ccc(NC(=O)CCCC(C)=O)cc1)C(=O)NC(CCC(=O)OC)C(=O)OC (stereo not given),> 100 µM,> 100 µM,> 100 µM,> 100 µM,> 100 µM,> 100 µM,> 100 µM,> 100 µM,> 100 µM,> 100 µM,> 100 µM,–,–,–,–,–,–,–
c1ccc([I+]c2ccccc2)cc1,> 100 µM,> 100 µM,> 100 µM,> 100 µM,> 100 µM,> 100 µM,> 100 µM,> 100 µM,> 100 µM,> 100 µM,> 100 µM,–,–,–,–,–,–,–
O=C(NNC(=O)c1csc(NC(=S)NC2CCCCC2)n1)c1ccccc1,59.2 µM,76.3 µM,45 µM,> 100 µM,> 100 µM,19.7 µM,15.9 µM,> 100 µM,13 µM,51.3 µM,49.5 µM,–,–,–,–,–,–,–
Cc1cnc2sn(-c3ccc(Br)cc3)c(=O)c2c1,> 100 µM,> 100 µM,> 100 µM,79.3 µM,> 100 µM,> 100 µM,> 100 µM,> 100 µM,> 100 µM,> 100 µM,> 100 µM,–,–,–,–,–,–,–
CC1C(C#N)(C#N)C(C#N)=C(N)C1(Cl)[N+](=O)[O-] (stereo not given),28.7 µM,29.6 µM,58 µM,25.8 µM,26.5 µM,25.4 µM,20.3 µM,47.4 µM,13.1 µM,30.6 µM,31.6 µM,–,–,–,–,–,–,–
CC1(C)[C@@H]2C[C@H]1c1cnc(-c3ccccn3)cc1C2CCCCC[C@@H]1c2cc(-c3ccccn3)ncc2[C@@H]2C[C@H]1C2(C)C (stereo not given in full),> 100 µM,> 100 µM,> 88.6 µM,> 100 µM,> 100 µM,> 38.5 µM,31.3 µM,> 100 µM,> 100 µM,> 100 µM,7.53 µM,–,–,–,–,–,–,–
CN(C)c1ccc(C=C2C(=O)NC(=S)NC2=O)c2ccccc12,77 µM,> 100 µM,> 100 µM,> 100 µM,> 100 µM,> 100 µM,> 100 µM,> 100 µM,> 100 µM,> 100 µM,> 100 µM,–,–,–,–,–,–,–
Cc1ccc(C(=O)N/N=C(\N=Nc2ccc(C(=O)O)cc2)c2ccc(N(CCC#N)CCC#N)cc2C)cc1,> 100 µM,> 100 µM,> 100 µM,> 100 µM,> 100 µM,> 100 µM,> 100 µM,> 100 µM,> 100 µM,> 100 µM,> 100 µM,–,–,–,–,–,–,–
CC(=O)OC(C)(C)CCC(=O)[C@](C)(O)[C@H]1[C@H](O)C[C@@]2(C)[C@@H]3CCc4c(cc(OC5OC(CO)C(O)C(O)C5O)c(O)c4C)C3(C)C(=O)C[C@]12C (stereo not given in full),> 100 µM,> 100 µM,> 100 µM,> 100 µM,> 100 µM,> 100 µM,> 100 µM,> 100 µM,> 100 µM,> 100 µM,> 100 µM,–,–,–,–,–,–,–
Cc1[nH]c(=O)nc(NNCc2ccc(Cl)cc2)c1C(=O)Nc1ccc(Cl)cc1,> 100 µM,> 100 µM,> 100 µM,> 100 µM,> 100 µM,> 100 µM,> 100 µM,> 100 µM,> 100 µM,> 100 µM,> 100 µM,–,–,–,–,–,–,–
CC(=O)N(C(C)=O)c1cc2c3c(c1)CCCN3CCC2,> 10 µM,> 10 µM,> 10 µM,> 10 µM,> 10 µM,> 10 µM,> 10 µM,> 10 µM,> 10 µM,> 10 µM,> 10 µM,–,–,–,–,–,–,–
COc1ccc2nc3cccc([N+](=O)[O-])c3c(NCCCO)c2c1,0.0132 µM,0.0177 µM and 0.0148 µM,0.00376 µM,0.0312 µM and 0.0859 µM,–,0.00431 µM,1.01 µM,0.0134 µM and 0.0389 µM,–,15.6 µM,0.0803 µM and 0.0618 µM,–,0.0104 µM and 0.023 µM,0.0288 µM,–,0.0181 µM and 0.0138 µM,0.00181 µM,0.00162 µM
BrCC[N+]12CC[N+](CCBr)(CC1)C2,> 100 µM,> 100 µM,> 100 µM,> 100 µM,> 100 µM,> 100 µM,> 100 µM,> 100 µM,> 100 µM,> 100 µM,> 100 µM,–,–,–,–,–,–,–

# Reference: PubChem BioAssay (NCI)
